Source: patent US5079244A, “Substituted 3-aminosydnone imines, pharmaceutical compositions containing same, and process for administering same” (Cassella Aktiengesellschaft, priority 1989, dated 1992)
Structures can show the parent of a compound that is named as a salt.

Tested on: spiral strips of the pulmonary artery of the guinea pig
Assay: relaxant effect on potassium-depolarized, CaCl2-contracted spiral strips of the pulmonary artery of the guinea pig
Details: Cavia porcellus, 40 mmol/l potassium, contraction by 0.5 mmol/l CaCl2, cumulative addition, average value of 4 to 6 vessel strips, read-out: IC50: concentration of the test substance which inhibits the contraction by 50%
Procedure: The pharmacological action of the compounds of the formula I was determined by a modified method of Godfraind and Kaba (Arch. Int. Pharmacodyn. Ther. 196, (Suppl ) 35 to 49, 1972) and of Schuman et al. (Naunyn-Schmiedeberg'sArch. Pharmacol. 289, 409 to 418, 1975). In this connection, spiral strips of the pulmonary artery of the guinea pig are depolarized using 40 mmol/l of potassium after equilibration in calcium-free Tyrode solution. An addition of 0.5 mmol/l of CaCl2 then induces a contraction. The relaxant effect of the test substance is determined by cumulative addition in semilogarithmic graduated concentrations. The concentration of the test substance which inhibits the contraction by 50% (=IC50, mol/l) is determined from the concentration-effect curve (abscissa: --log mol/l of test substance, ordinate % inhibition of the maximum contraction, average value of 4 to 6 vessel strips).

Structure (SMILES) | IC50
CC1CCCC(C)N1[n+]1[n-]oc(=N)c1CSc1ccccc1 (stereo not shown) [Example 5, 3-(2,6-Dimethylpiperidino)-4-phenylthiomethylsydnone imine hydrochloride] | 1100 nM
N=c1o[n-][n+](N2CCOCC2)c1CSCc1ccccc1 [Example 7, 4-Benzylthiomethyl-3-morpholinosydnone imine hydrochloride] | 700 nM
CC1CCCC(C)N1[n+]1[n-]oc(=N)c1CSCc1ccccc1 (stereo not shown) [Example 8, 4-Benzylthiomethyl-3-(2,6-dimethylpiperidino)sydnone imine hydrochloride] | 800 nM
CC1CCCC(C)N1[n+]1noc([N-]C(=O)c2ccccc2)c1CSCc1ccccc1 (stereo not shown) [Example 10, N-Benzoyl-4-benzylthiomethyl-3-(2,6-dimethylpiperidino)sydnone imine] | 2000 nM
CC(CSCc1ccccc1)c1c(=N)o[n-][n+]1N1CCOCC1 (stereo not shown) [Example 12, 4-(2-Benzylthio-1-methylethyl)-3-morpholinosydnone imine hydrochloride] | 500 nM
CC1CCCC(C)N1[n+]1[n-]oc(=N)c1COc1ccccc1 (stereo not shown) [Example 13, 3-(2,6-Dimethylpiperidino)-4-phenoxymethylsydnone imine hydrochloride] | 2000 nM
CCOC(=O)[N-]c1cn(N2CCOCC2)n[o+]1 [molsidomine, N-ethoxycarbonyl-3-morpholino-sydnone imine, reference compound] | > 300000 nM
